Here are results for four compounds from ChEMBL document CHEMBL1201862, “PubChem BioAssay data set” (2004).

Test [1] concerns the target T1, Histone-lysine N-methyltransferase NSD2 (Homo sapiens, UniProt O96028).
T1 sequence (O96028 whole entry): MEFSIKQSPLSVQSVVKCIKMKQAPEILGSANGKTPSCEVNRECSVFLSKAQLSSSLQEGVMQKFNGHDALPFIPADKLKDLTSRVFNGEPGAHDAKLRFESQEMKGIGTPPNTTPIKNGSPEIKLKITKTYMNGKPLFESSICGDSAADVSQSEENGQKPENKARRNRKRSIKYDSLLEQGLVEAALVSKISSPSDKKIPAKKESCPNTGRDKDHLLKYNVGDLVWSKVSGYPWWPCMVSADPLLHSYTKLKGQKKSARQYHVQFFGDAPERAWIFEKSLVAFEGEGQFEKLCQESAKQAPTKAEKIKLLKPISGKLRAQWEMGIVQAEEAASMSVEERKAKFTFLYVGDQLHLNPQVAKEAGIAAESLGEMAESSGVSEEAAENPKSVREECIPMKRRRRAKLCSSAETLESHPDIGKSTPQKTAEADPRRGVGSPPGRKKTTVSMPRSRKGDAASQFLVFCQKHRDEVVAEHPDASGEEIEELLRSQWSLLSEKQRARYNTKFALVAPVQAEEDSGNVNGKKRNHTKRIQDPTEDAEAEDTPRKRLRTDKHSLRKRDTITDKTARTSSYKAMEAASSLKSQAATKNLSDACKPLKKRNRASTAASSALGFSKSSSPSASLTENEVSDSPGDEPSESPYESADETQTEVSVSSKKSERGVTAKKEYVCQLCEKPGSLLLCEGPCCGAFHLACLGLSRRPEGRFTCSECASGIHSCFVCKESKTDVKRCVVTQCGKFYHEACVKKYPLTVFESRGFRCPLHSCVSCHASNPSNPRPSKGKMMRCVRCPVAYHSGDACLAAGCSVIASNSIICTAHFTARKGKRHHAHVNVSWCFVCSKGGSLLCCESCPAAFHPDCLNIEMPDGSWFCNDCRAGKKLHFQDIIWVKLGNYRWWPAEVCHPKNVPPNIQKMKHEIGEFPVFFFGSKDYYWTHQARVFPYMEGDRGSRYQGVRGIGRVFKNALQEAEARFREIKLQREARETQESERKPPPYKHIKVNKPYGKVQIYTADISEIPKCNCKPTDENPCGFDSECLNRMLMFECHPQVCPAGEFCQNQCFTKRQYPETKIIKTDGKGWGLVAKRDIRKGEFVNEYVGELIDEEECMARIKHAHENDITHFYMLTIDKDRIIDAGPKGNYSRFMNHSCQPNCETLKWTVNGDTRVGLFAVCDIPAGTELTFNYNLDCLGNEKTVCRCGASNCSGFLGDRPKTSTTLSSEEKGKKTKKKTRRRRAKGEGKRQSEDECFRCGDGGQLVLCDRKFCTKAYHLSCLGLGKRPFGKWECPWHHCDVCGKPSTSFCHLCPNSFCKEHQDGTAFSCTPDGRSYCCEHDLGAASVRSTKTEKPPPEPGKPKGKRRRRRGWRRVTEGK
Type of test: biochemical.

A short description of test [2]: Trypanosoma cruzi growth suppression in host cells – NIH3T3 host cells, beta-gal luminescence, confirmation (AID 2044).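 Note: intracellular parasites grown in NIH/3T3 mouse fibroblasts as host cells; luminescent beta-galactosidase reporter signal from transgenic T. cruzi replicating inside host cells; inhibitors lower the luminescence signal.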 The format is functional, cell-based.
Test [3] in a line: NIH3T3 cell viability loss – ATP luminescence, mouse fibroblasts, counter-screen, dose response (AID 2010).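 Note: cells exposed to compound for about 90 hours before reading.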 Type of test: functional, cell-based.
Test [4] deals with HEK293. Description: cells. As to conditions: Homo sapiens. The format is functional, cell-based.
In another test the target is Paired box protein Pax-8 (Homo sapiens, UniProt Q06710). As to the kind of experiment: PAX8 transcriptional activity inhibition in RMG-I – RMG-I cells, luciferase, cherry-pick, dose response (AID 687027).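 Note: luciferase reporter driven by Pax8 target thyroperoxidase promoter measured by SteadyGlo luminescence.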 Type of test: functional, cell-based.
Sequence of Paired box protein Pax-8 (Q06710 whole entry): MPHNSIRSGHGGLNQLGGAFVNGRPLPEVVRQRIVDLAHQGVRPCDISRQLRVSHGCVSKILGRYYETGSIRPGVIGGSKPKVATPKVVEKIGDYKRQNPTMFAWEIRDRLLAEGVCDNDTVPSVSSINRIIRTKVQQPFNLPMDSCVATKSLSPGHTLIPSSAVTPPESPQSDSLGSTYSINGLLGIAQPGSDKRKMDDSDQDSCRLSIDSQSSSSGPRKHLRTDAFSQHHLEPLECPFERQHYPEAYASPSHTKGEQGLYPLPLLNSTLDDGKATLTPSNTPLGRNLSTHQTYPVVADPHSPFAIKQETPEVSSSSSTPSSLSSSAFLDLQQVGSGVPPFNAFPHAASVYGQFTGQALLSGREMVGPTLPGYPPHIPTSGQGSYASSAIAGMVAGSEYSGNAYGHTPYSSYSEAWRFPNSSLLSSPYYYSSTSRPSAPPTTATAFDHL
For test [5], the system named is HEK293. As to the kind of experiment: cells. Particulars: Homo sapiens. Type of test: functional, cell-based. This is another data set of the same source.
Test [6] concerns HEK293. As to the kind of experiment: inhibition of NOD1-driven NF-kB reporter – cell-based, luminescence, uHTS, primary screen (AID 1578). Particulars: Homo sapiens. The format is functional.
The target in test [7] is T2, Apoptotic protease-activating factor 1 (Homo sapiens, UniProt O14727).
T2 sequence (O14727 whole entry): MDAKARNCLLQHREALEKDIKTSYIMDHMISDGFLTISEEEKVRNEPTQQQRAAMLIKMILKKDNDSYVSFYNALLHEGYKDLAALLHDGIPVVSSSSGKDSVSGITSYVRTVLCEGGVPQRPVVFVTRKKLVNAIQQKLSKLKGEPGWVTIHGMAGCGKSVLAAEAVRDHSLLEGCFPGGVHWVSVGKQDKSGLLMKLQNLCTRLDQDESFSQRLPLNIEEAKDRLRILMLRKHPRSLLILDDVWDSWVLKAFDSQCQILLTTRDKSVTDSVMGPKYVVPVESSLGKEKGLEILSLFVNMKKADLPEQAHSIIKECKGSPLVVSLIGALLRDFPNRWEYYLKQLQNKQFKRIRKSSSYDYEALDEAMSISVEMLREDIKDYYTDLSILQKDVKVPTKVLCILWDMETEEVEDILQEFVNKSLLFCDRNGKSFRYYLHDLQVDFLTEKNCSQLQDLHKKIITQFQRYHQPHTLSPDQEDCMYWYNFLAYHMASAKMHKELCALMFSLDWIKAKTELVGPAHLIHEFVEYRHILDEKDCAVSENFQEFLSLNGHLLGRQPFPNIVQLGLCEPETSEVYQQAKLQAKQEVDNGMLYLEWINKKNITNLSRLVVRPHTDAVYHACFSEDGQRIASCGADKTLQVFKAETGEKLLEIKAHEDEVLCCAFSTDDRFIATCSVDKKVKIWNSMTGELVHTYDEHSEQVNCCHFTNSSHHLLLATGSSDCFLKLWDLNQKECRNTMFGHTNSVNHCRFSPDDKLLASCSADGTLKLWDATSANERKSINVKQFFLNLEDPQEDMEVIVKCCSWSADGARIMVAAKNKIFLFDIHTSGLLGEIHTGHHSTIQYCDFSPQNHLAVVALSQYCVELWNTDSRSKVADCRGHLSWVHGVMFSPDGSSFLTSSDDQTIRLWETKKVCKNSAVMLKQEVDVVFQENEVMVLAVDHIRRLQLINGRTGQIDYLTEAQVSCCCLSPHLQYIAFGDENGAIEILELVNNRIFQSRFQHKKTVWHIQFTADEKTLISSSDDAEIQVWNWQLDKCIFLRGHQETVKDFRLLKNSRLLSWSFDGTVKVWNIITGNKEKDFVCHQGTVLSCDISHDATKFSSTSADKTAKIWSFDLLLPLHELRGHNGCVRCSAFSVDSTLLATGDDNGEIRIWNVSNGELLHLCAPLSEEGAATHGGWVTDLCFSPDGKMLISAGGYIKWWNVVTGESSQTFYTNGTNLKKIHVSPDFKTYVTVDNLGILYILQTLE
Type of test: functional.

Test [8] can be described thus: HEK-293T viability loss after treatment – luminescence, T-cell screen hits, cytotoxicity control for TCR NF-kB inhibitor project, dose response (AID 489026).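 Note: cells exposed to compound about 14 hours before the viability readout.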 The format is functional, cell-based.

Structures are written as SMILES. Active and inactive are the calls of the source.

One may read the AC50 as the concentration giving half of the maximal activity seen. As for `CC(C)c1ccc(S(=O)(=O)/N=C2\C=C(NS(=O)(=O)c3ccccc3)C(=O)c3ccccc32)cc1`, the AC50 in test [1] is 4 µM (active).
As a reminder, the EC50 is the concentration at which the effect is half-maximal. With `O=[N+]([O-])c1ccc(/C=N/n2cnc3ccccc32)s1`, the EC50 in test [2] was 0.257 µM (active); in [3], 5.46 µM (active).
For orientation: IC50 means the concentration needed to halve the response being measured. For `CCSc1nsc(NC(=O)Nc2cccc(F)c2)n1`, the IC50 in the test with HEK293 [4] is 3.7 µM (active); with HEK293 [5], 10.8 µM (active). On Paired box protein Pax-8, the AC50 was 5.73 µM (active). Further, in the test on HEK293 [6], the EC50 was 3.22 µM (active).
As for `COc1ccc(CNC(=O)c2c(C)oc3c2C(=O)c2ccccc2C3=O)cc1`, the IC50 was 23.1 µM (active) in test [7] and 21.5 µM (inactive) in test [8].
